Laboratory results published in US4939178A, “Use of avarol for the control of adult T-cell leukemia/lymphoma” (Merz + Co. GmbH & Co., priority 1986, dated 1990).
Read-outs that look alike come from different tables or passages of the source.

Experiments:
[1] = system: ATL-3-I cells; test: Cell growth of ATL-3-I cells; assay type: cell-based; conditions: two days, control 13.2
From the text: (§1) For this, the MT-2, ATL-3I, and ATL-1K cell lines were employed. These cell lines are described by Hashino, H., et al., Proc. Nat. Academy Science U.S.A. 80, 6061-6065 (1983) and by Miyoshi, J., et al., Nature 294, 770-771 (1981). All these cell lines contain the HTLV-provirus, and among these cell lines primarily the lines MT-2 and ATL-3I express also the retrovirus antigens and also produce the HTLV-I virus.
(§2) Cell culture conditions were employed according to those described by H. Hoshino, et al., Proc. Nat. Acad. Sci. (U.S.A.) 80, 1983, 7337-7341.
(§3) ATL-3-I, MT-2, and ATL-1K cells were seeded into Petri dishes in a concentration of 3×10^3 cells/cm^2 in a culture medium containing 20% of calf serum. After incubation for two days, the density of the cells amounted to: […]: 13.2×10^3 cells/cm^2; MT-2: 12.4×10^3 cells/cm^2; ATL-1K: 15.7×10^3 cells/cm^2. These values formed the control values.
(§4) Thereupon samples of these cells were treated for two days with different concentrations of avarol.

[2] = system: MT-2 cells; test: Cell growth of MT-2 cells; assay type: cell-based; conditions: two days, control 12.4
From the text: as §1, §2, §3, §4

[3] = system: ATL-1K cells; test: Cell growth of ATL-1K cells; assay type: cell-based; conditions: two days, control 15.7
From the text: as §1, §2, §3, §4

[4] = system: retroviral (HTLV-I) antigen in ATL-3-I cells; test: microbe, parasite or virus in culture; assay type: cell-based; conditions: Primate T-lymphotropic virus 1, read-out: Expression of retroviral antigen (in %)
[5] = system: male NMRI mice immunized with SRBC; test: Jerne plaque test, in vivo immunoglobulin production; conditions: avarol 30 mg/kg i.p., from 0 to +4
Procedure: The plaque test of Jerne and Nordin (Science 140: 405-406, 1963) was used with the modification given by Cunningham and Szenberg (Immunolog. 14: 599-601; 1968). Briefly, 8 male NMRI mice per group (20-22 g) were immunized on day 0 by i.p. injection of 5×10^8 SRBC in 0.5 ml saline. Treatment with avarol was done i.p. either from day 0 to day +4 or from day -4 to day 0. One hour after the last drug administration, the animals were killed by a blow on the head and bled. The spleens were removed and a single cell suspension was prepared by teasing the pooled spleens through a 120μm mesh sieve. After lysing the erythrocytes by 0.15M NH4 Cl, the cells were washed twice in Hank's balanced salt solution containing 29 ml of 7.5% NaHCO3 and 10 ml of 1M HEPES buffer solution per one liter. The cells were resuspended in 2 ml per spleen. Six Cunningham chambers per group were filled with a mixture of 0.5 ml of a suitable dilution of spleen cells (generally 1:100), 0.5 ml of a suspension of SRBC (10^9 /ml) and 125 μl of normal guinea pig complement. After 90-120 min of incubation at 37° C., the number of plaques was counted. Plaques per spleen or per 10^6 spleen cells were calculated.
The pooled blood of 8 mice was centrifuged to obtain the serum. IgM and IgG titers were measured with the mercaptoethanol method (Hudson, L. and Hay, F. C. Practical Immunology, Blackwell Sci., Oxford; 1983).

[6] = system: male NMRI mice; test: Delayed-type hypersensitivity to sheep red blood cells; assay type: in vivo
Procedure: Reaction to sheep red blood cells (SRBC): DTH was produced according to the method of Lagrange et al. (J. Exp. Med. 139: 528-542; 1974) and Liew (Eur. J. Immunol. 7, 714-718; 1977). Male NMRI mice (20-23 g, 10 animals/group) were immunized with 10^8 SRBC/40 μl into one foot pad (day 0). Four days later 10^9 SRBC/40 μl were injected into the other foot pad. After 24 hours, paw size was measured with a dial gauge caliper Odi-Test OOT (H. C. Kroeplin, Schluchtern, Germany). Avarol (in 0.15% [w/v] methylcellulose) was administered daily i.p. either from day -2 to +1 or from day +2 to +4. The level of DTH was expressed as foot pad increase, determined after 24 hrs; and it is given in mm. Non-treated groups were injected i.p. with methylcellulose only. Treated groups were compared with the controls using the U-test of Wilcoxon et al. (Sachs, L. Angewandte Statistik, Springer-Verlag, Berlin; 1984).

[7] = system: male NMRI mice; test: Contact allergy to oxazolone; assay type: in vivo; conditions: 3-30 mg/kg i.p., day -1 to +2 or day +6 to +8; P>0.05
[8] = system: male Sprague-Dawley rats; test: Antibody mediated hypersensitivity, modified active Arthus reaction; assay type: in vivo
Procedure: A modified active Arthus reaction was performed as described (Titus et al., J. Immunol. Methods 45: 65-78; 1981). Male Sprague-Dawley rats (8/group) weighing 120 g were immunized by injecting into the tail base 0.5 ml of a suspension of 4.4 ml pertussis vaccine (Behringwerke, Marburg) in 65.6 ml of 0.9% saline plus 0.7 g ovalbumin (3×cryst.) in 100 ml paraffin oil. Three weeks after immunization 0.1 ml of 0.03% ovalbumin solution were injected into a hind paw and the paw volume was measured with a water plethysmometer (Rhema) immediately thereafter and again after 4 hours. The animals were treated i.p. with daily doses from 3-30 mg/kg of avarol (in 0.15% [w/v] methylcellulose) according to the following schedules: (i) day -1 to +2, (ii) day +18 to +21 or (iii) twice 24 hours and 30 minutes before challenge (day 0 represents the day of immunization). The controls received methylcellulose only. Values are compared with a control group using Student's-t-test (L. Sachs. Angewandte Statistik, Springer-Verlag, Berlin; 1984).

[9] = system: macrophage-containing and macrophage-depleted lymphocyte cultures; test: [3H]-dThd incorporation in lymphocyte cultures of pretreated mice; conditions: pretreatment of mice with avarol, lymphocyte cultures in vitro
[10] = assay type: in vivo, rats
[11] = Organ distribution of tritium labelled avarol; assay type: in vivo, rats
Procedure: The organ distribution was determined by the same method using tritium labelled Avarol. The determinations were performed 24 hours after termination of the i.v. application. These concentrations were determined on the basis of radioactivity. Moreover, the chemical nature of the radioactive product was identified by high-pressure liquid chromatography and found to consist of over 90% of Avarol. In addition, the biological activity of the compound in the blood was determined after extraction with ethyl acetate and estimated in the […] cell system in vitro (Muller, W. E. G. et al.; Comp. Biochem. Physiol. 80C, 47-52; 1985). Using this system, the biological activity of the compound, present in the blood, was determined and converted on a gram basis. Using this approach the concentration in the blood was only 5-15% lower than that determined on the basis of radioactivity.

[12] = system: peripheral human lymphocytes (buffy coat cells); test: Interferon-gamma production by lymphocytes (EIA); assay type: cell-based
Procedure: Effector cells: Buffy coat cells were prepared by centrifugation on Ficoll-Plaque gradient and washed two times. Subsequently the cells were divided and adjusted to a concentration of 5×1,000,000 cells/ml.
Interferon measurement: Levels of Interferon were defined by an Enzymeimmunoassay (EIA). Interferon gamma: 96 well flat bottom plates (Greiner, Nuertingen) were coated with a monoclonal antibody recognizing Interferon gamma. 200 μl of the supernatant sample were added per well together with Interferon gamma-peroxidase coupled (50 μl), consisting of the same antibody as used for coating. […] The enzymatic reaction is completed by a preparation containing hydrogen peroxide substrate. The reaction is stopped within 15 minutes by 100 μl of sulfuric acid per well. The amount of Interferon is defined by comparing the extinction of the test sample with a standard curve produced by known values of Interferon gamma.

[13] = system: T-cell derived leukemia cells; conditions: cited from earlier work

CC1=CCC[C@H]2[C@](C)(Cc3cc(O)ccc3O)[C@@H](C)CC[C@]12C [Avarol, 2-[(1R)-1,2,3,4,4a,7,8,8aα-octahydro-1β,2β,4aβ,5-tetramethyl-1-naphthylmethyl]-1,4-benzenediol]
Cell concentration ATL-3-I ([1]; drug 1.0 μg/ml): 9.4 × 10^3 /cm^2 | Cell concentration ATL-3-I ([1]; drug 5.0 μg/ml): 8.7 × 10^3 /cm^2 | Cell concentration MT-2 ([2]; drug 1.0 μg/ml): 8.1 × 10^3 /cm^2 | Cell concentration MT-2 ([2]; drug 5.0 μg/ml): 7.9 × 10^3 /cm^2 | Cell concentration ATL-1K ([3]; drug 1.0 μg/ml): 13.4 × 10^3 /cm^2 | Cell concentration ATL-1K ([3]; drug 5.0 μg/ml): 10.3 × 10^3 /cm^2 | activity at 1 µg/mL [4]: 82% | activity at 5 µg/mL [4]: 74% | Cell/spleen [5]: 1.2e+08 cells/spleen | influence on DTH to SRBC ([6]; i.p. day +2 to +4 after immunization, doses higher than 10 mg/kg): weak but significant immunosuppressive effect | influence on DTH to SRBC ([6]; i.p. day -2 to +1, up to daily doses of 30 mg/kg): no significant immunosuppressive influence | influence on DTH oxazolone [7]: did not influence significantly | suppression of the Arthus reaction ([8]; 30 mg/kg, 24 hours and 30 minutes before challenge, P>0.05): not significant | suppression of the Arthus reaction ([8]; 3-30 mg/kg i.p., day -1 to +2, day +18 to +21 or immediately before challenge): no significant suppression | [3H]-dThd incorporation rate [9]: higher | Percentage of Radioactivity in Blood ([10]; 10 mg/kg i.v., 1 hour): 96% | Percentage of Radioactivity in Blood ([10]; 10 mg/kg i.v., 6 hours): 88% | Percentage of Radioactivity in Blood ([10]; 10 mg/kg i.v., 12 hours): 72% | Percentage of Radioactivity in Blood ([10]; 10 mg/kg i.v., 24 hours): 43% | Percentage of Radioactivity in Blood ([10]; 10 mg/kg i.v., 48 hours): 26% | Percentage of Radioactivity in Blood ([10]; 20 mg/kg i.v., 1 hour): 92% | Percentage of Radioactivity in Blood ([10]; 20 mg/kg i.v., 12 hours): 75% | Percentage of Radioactivity in Blood ([10]; 20 mg/kg i.v., 24 hours): 39% | Percentage of Radioactivity in Blood ([10]; 20 mg/kg i.v., 48 hours): 21% | Percentage of Radioactivity in Blood ([10]; rat, in vivo): 83 | Concentration of Avarol, Skin ([11]; 10 mg/kg i.v., 24 hours): 0.6 microgram of Avarol per gram o | Concentration of Avarol, Brain ([11]; 20 mg/kg i.v., 24 hours): 0.64 microgram of Avarol per gram o | blood-brain barrier penetration ([11]; rats): penetrates the blood-brain barrier | Titer of Interferon-gamma produced by lymphocytes ([12]; avarol 1.0 μg/ml, 48 hours): 52 Units/ml of supernatant | optimal dose for Interferon gamma induction in vitro ([12]; buffy coat cells): 0.5 µg/mL | lymphoma cell growth inhibited by 50% [13]: 0.3 to 0.4 µg/mL
